The record followed here is patent US7067665B2, “Oxybenzamide derivatives useful for inhibiting factor Xa or Vlla” (Sanofi-Aventis Deutschland GmbH, priority 2000, dated 2006).

Structures are written as SMILES.

As usually defined, the Ki is the dissociation constant of the complex between target and ligand, obtained from inhibition or displacement.

For the first assay, the target named is T1, human factor Xa (Homo sapiens, UniProt P00742).
T1 construct: 25 μl human factor Xa (Enzyme Research Laboratories, Inc; South Bend, Ind.); purchased Enzyme Research Laboratories, Inc; South Bend, Ind
T1 sequence (P00742 235-488 limits assumed): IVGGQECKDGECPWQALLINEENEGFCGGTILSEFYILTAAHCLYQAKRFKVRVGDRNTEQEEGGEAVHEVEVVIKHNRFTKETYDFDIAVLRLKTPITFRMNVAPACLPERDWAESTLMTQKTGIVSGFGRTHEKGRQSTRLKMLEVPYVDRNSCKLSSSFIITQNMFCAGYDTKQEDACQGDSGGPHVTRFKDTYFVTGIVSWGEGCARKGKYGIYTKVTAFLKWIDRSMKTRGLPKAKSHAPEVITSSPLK
T1 sequence (P00742 41-179 partner limits assumed): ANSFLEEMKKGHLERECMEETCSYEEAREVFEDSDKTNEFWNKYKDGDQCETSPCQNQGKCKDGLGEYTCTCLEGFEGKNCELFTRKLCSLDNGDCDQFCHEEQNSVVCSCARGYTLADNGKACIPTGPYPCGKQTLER
The experiment in a line: Factor Xa chromogenic assay (substrate S-2765).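 Also: purified enzyme, compound preincubated with the enzyme for 10 min before substrate addition starts the reaction.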 In kind it is biochemical. Conditions: inhibition constant for inhibition of factor Xa; IC50 corrected for substrate competition; 25° C., enzyme 0.5 nM, substrate 140 μM; read-out: Ki(FXa).
Consider `COc1ccc(C(=O)NCC2CCC(CN)CC2)cc1OCCc1ccc(Cl)cc1Cl` (centres unmarked) [Example 31, N-(4-Aminomethyl-cyclohexylmethyl)-3-[2-(2,4-dichloro-phenyl)-ethoxy]-4-methoxy-benzamide], for which the Ki came out at 9340 nM. `COc1ccc(C(=O)N2CCN(c3ccncc3)CC2)cc1OCCc1ccc(Cl)cc1Cl` [Example 3, {3-[2-(2,4-Dichlorophenyl)-ethoxy]-4-methoxy-phenyl}-(4-pyridin-4-yl-piperazin-1-yl)-methanone]: the Ki is 5410 nM.

`COc1ccc(C(=O)N2CCN(CC(=O)N3CCCC3)CC2)cc1OCCc1ccc(Cl)cc1Cl` [Example 14, 2-(4-{3-[2-(2,4-Dichlorophenyl)-ethoxy]-4-methoxy-benzoyl}-piperazin-1-yl)-1-pyrrolidin-1-yl-ethanone]: the Ki was found to be 2180 nM.

On to `COc1ccc(C(=O)NCC2CC(c3cc[n+]([O-])cc3)=NO2)cc1OCCc1ccc(Cl)cc1Cl` (centres unmarked) [Example 28, 3-[2-(2,4-Dichloro-phenyl)-ethoxy]-N-[3-(1-hydroxy-pyridin-4-yl)-4,5-dihydro-isoxazol-5-ylmethyl]-4-methoxy-benzamide], for which the inhibition constant Ki came to 960 nM.

Turning to `COc1ccc(C(=O)N2CCN(Cc3ccc(C#N)cc3)CC2)cc1OCCc1ccc(Cl)cc1Cl` [Example 11, 4-(4-{3-[2-(2,4-Dichloro-phenyl)-ethoxy]-4-methoxy-benzoyl}-piperazin-1-ylmethyl)-benzonitrile], the Ki is 1380 nM.

Take `COc1ccc(C(=O)NCC2CCN(c3ccccn3)CC2)cc1OCCc1ccc(Cl)cc1Cl` [Example 68, 3-[2-(2,4-Dichloro-phenyl)-ethoxy]-4-methoxy-N-(3,4,5,6-tetrahydro-2H-[1,2′]bipyridinyl-4-ylmethyl)-benzamide]: the Ki stood at 3040 nM. Take `Cc1ccc(C(=O)N2CCN(Cc3cc[n+]([O-])cc3)CC2)cc1OCCc1ccc(Cl)cc1Cl` [Example 17, {3-[2-(2,4-Dichloro-phenyl)-ethoxy]-4-methyl-phenyl}-[4-(1-oxy-pyridin-4-ylmethyl)-piperazin-1-yl]-methanone]: the Ki came to 407 nM. Still for that read-out and setting: to `COc1cc(C(=O)N2CCN(Cc3ccncc3)CC2)cc(OCCc2ccc(Cl)cc2Cl)c1OC` [Example 5, {3-[2-(2,4-Dichloro-phenyl)-ethoxy]-4,5-dimethoxy-phenyl}-(4-pyridin-4-ylmethyl-piperazin-1-yl)-methanone] belongs 167 nM; to `O=C(NCC1CCN(c2ccncc2)CC1)c1cc(OCCc2ccc(Cl)cc2Cl)ccc1[N+](=O)[O-]` [Example 84], 4880 nM. Same read-out and setting: in the case of `COc1ccc(C(=O)NCC2CCN(c3cc[n+]([O-])cc3)CC2)cc1OCCc1ccc(Cl)cc1Cl` [Example 66] it was 1480 nM.

On to `COc1ccc(C(=O)N2CCN(CC(=O)N(C)C)CC2)cc1OCCc1ccc(Cl)cc1Cl` [Example 13, 2-(4-{3-[2-(2,4-Dichlorophenyl)-ethoxy]-4-methoxy-benzoyl}-piperazin-1-yl)-N,N-dimethyl-acetamide], for which the inhibition constant Ki is 1410 nM. On the same count and under the same terms, to `CCOc1ccc(C(=O)N2CCN(Cc3ccncc3)CC2)cc1OCCc1ccc(Cl)cc1Cl` [Example 9, {3-[2-(2,4-Dichloro-phenyl)-ethoxy]-4-ethoxy-phenyl}-(4-pyridin-4-ylmethyl-piperazin-1-yl)-methanone] belongs 306 nM. For `COc1ccc(C(=O)NCC2CC(c3ccncc3)=NO2)cc1OCCc1ccc(Cl)cc1Cl` (centres unmarked) [Example 24, 3-[2-(2,4-Dichloro-phenyl)-ethoxy]-4-methoxy-N-(3-pyridin-4-yl-4,5-dihydro-isoxazol-5-ylmethyl)-benzamide], the inhibition constant Ki amounted to 1130 nM.

The assay is the same for the next values; noted with them: read-out: Ki(FXa).
`COc1ccc(C(=O)NCC2CCN(c3ccncc3)CC2)cc1NS(=O)(=O)c1cc2ccc(Cl)cc2s1` [Example 97, 3-(6-Chloro-benzo[b]thiophene-2-sulfonylamino)-4-methoxy-N-(3,4,5,6-tetrahydro-2H-[1,4′]bipyridinyl-4-ylmethyl)-benzamide]: the inhibitory constant (Ki) stood at 3500 nM. Take `COc1cc(C(=O)NCC2CCN(c3ccncc3)CC2)cc(OCCc2ccc(Cl)cc2)c1Br` [Example 224, 4-Bromo-3-[2-(4-chloro-phenyl)-ethoxy]-5-methoxy-N-(3,4,5,6-tetrahydro-2H-[1,4′]bipyridinyl-4-ylmethyl)-benzamide]: the inhibition constant Ki was 20 nM. On the same count and under the same terms, in the case of `COc1ccc(C(=O)NCC2CCN(c3ccncc3)CC2)cc1OCCc1ccc(Cl)nc1` [Example 145] it was 591 nM; in that of `COc1cc(C(=O)NCC2CCN(c3ccnc(C)c3)CC2)cc(OCCc2ccc(Cl)cc2)c1Br` [Example 225, 4-Bromo-3-[2-(4-chloro-phenyl)-ethoxy]-5-methoxy-N-(2′-methyl-3,4,5,6-tetrahydro-2H-[1,4′]bipyridinyl-4-ylmethyl)-benzamide], 65 nM; in that of `O=C(c1ccc(Cl)c(OCCc2ccc(Cl)cc2Cl)c1)N1CCN(Cc2cc[n+](O)cc2)CC1` [Example 187, {4-Chloro-3-[2-(2,4-dichloro-phenyl)-ethoxy]-phenyl}-[4-(1-oxy-pyridin-4-ylmethyl)-piperazin-1-yl]-methanone], 964 nM.

Take `COc1ccc(C(=O)N2CCCN(CCCN3CCCC3)CC2)cc1OCCc1ccc(Cl)cc1Cl` [Example 196]: the Ki stood at 4270 nM. Same read-out and setting: in the case of `CCOc1cc(C(=O)N2CCN(Cc3ccncc3)CC2)cc(OCCc2ccc(Cl)cc2Cl)c1OCC` [Example 177, {3-[2-(2,4-Dichloro-phenyl)-ethoxy]-4,5-diethoxy-phenyl}-(4-pyridin-4-ylmethyl-piperazin-1-yl)-methanone] it was 226 nM. On the same count and under the same terms, to `O=C(NCC1CCN(c2ccncc2)CC1)c1cncc(OCCc2ccc(Cl)cc2Cl)c1` [Example 87] belongs 70 nM; to `COc1ccc(C(=O)NC2CCN(C3CCOCC3)CC2)cc1OCCc1ccc(Cl)cc1Cl` [Example 129], 25200 nM; to `O=C(Nc1cccc(C(=O)NCC2CCN(c3ccncc3)CC2)c1)Nc1ccc(Cl)cn1` [Example 91, 3-[3-(5-Chloro-pyridin-2-yl)-ureido]-N-(3,4,5,6-tetrahydro-2H-[1,4′]bipyridinyl-4-ylmethyl)-benzamide], 1390 nM. As to `COc1cc(C(=O)NCC2CCN(c3ccnc(C)c3)CC2)cc(OCCc2ccc(Cl)cc2Cl)c1Cl` [Example 168], the Ki was 24 nM.

As to `Cc1cc(N2CCC(CNC(=O)c3ccc(Cl)c(OCCc4ccc(Cl)nc4)c3)CC2)ccn1` [Example 167, 4-Chloro-3-[2-(6-chloro-pyridin-3-yl)-ethoxy]-N-(2′-methyl-3,4,5,6-tetrahydro-2H-[1,4′]bipyridinyl-4-ylmethyl)-benzamide], the Ki is 277 nM.

`COc1ccc(COc2cc(C(=O)NCC3CCN(c4ccncc4)CC3)ccc2C)cc1` [Example 240]: the Ki stood at 1340 nM. The same measure, in the same setting: to `COc1cccc(COc2cc(C(=O)NCC3CCN(c4ccncc4)CC3)ccc2C)c1` [Example 241] belongs 2170 nM.

As to `Cc1cc(N2CCC(CNC(=O)c3ccc(Cl)c(OCCc4ccc(Cl)cc4)c3)CC2)ccn1` [Example 223, 4-Chloro-3-[2-(4-chloro-phenyl)-ethoxy]-N-(2′-methyl-3,4,5,6-tetrahydro-2H-[1,4′]bipyridinyl-4-ylmethyl)-benzamide], the Ki worked out at 44 nM.

Regarding `COc1ccc(C(=O)N2CCN(Cc3ccc(F)cc3)CC2)cc1OCCc1ccc(Cl)cc1Cl` [Example 12, {3-[2-(2,4-Dichlorophenyl)-ethoxy]-4-methoxy-phenyl}-[4-(4-fluorobenzyl)-piperazin-1-yl]-methanone], the inhibition constant Ki was found to be 3010 nM. On the same count and under the same terms, in the case of `Cc1ccc(C(=O)NCC2CCN(c3ccncc3)CC2)cc1OCc1ccc(OC(F)(F)F)cc1` [Example 242] it was 2940 nM; in that of `COc1ccc(C(=O)NCC2CCN(c3ccnc(C)c3)CC2)cc1OCCc1ccc(Cl)cc1` [Example 171], 130 nM; in that of `O=C(NCC1CCN(c2ccncc2)CC1)c1cc(O)c(Br)c(OCCc2ccc(Cl)cc2Cl)c1` [Example 86], 26 nM.

As to `O=C(NCC1CCN(c2ccncc2)CC1)c1cccc(OCCc2ccc(Cl)cc2Cl)n1` [Example 85], the inhibitory constant (Ki) turned out to be 304 nM.

Take `O=C(NCC1CCN(c2ccncc2)CC1)c1ccc(F)c(OCCc2ccc(F)cc2Cl)c1` [Example 215]: the inhibitory constant (Ki) worked out at 59 nM.

In the case of `COc1ccc(C(=O)N2CCN(CCN(C)C)CC2)cc1OCCc1ccc(Cl)cc1Cl` [Example 197], the Ki turned out to be 6030 nM.
